# Entries after “also recorded” stand apart in the source; their conditions may differ.
# Assays:
# connexin hemichannels = biological target: T1, connexin hemichannels (Rattus norvegicus, UniProt P08050); test: Blockage of dye (Lucifer Yellow) uptake by cells in spinal cord slices; type: cell-based; conditions: 500 micromolar peptide, slices incubated four hours, then Lucifer Yellow 30 minutes
# T1 construct: leads to the expression of connexin hemichannels; from tissue; host or cells: rat (Wistar p7) spinal cord, 500 micron slices in culture
# Procedure: Two functional tests were carried out using peptides. These functional test were (i) blockage of dye (Lucifer Yellow) uptake by cells in spinal cord slices, and (ii) prevention of oedema in spinal cord segments (using connexin 43 specific antisense as a positive control). All peptides used were synthesised by Sigma-Genosys (Australia).
# Lucifer Yellow is a small water soluble, fixable, dye able to pass from cell to cell via gap junction channels, but not across the cell membrane. The addition of Lucifer Yellow to the extracellular medium makes it is possible to check for the presence of open gap junction hemichannels. The dye will appear in the cytoplasm of cells which are expressing open channels.
# Wistar p7 rats were anesthetized with carbon dioxide and immediately decapitated. The spinal cord was excised and transferred to cold Hank's balanced salt solution (HBSS) at pH 7.4. Excess branch nerves and ligaments were removed and the cord transferred to a manual tissue chopper and a series of 500 micron thick slices cut. The damage caused by the slicing induces connexin 43 upregulation through the entire slice (exacerbated by the gap junction mediated bystander effect), and leads to the expression of connexin hemichannels. Slices were placed onto 3 cm diameter Millipore inserts in 24 well plates and cultured in the presence of mimetic peptides in the media. The final concentration for all 9 peptides tested was 500 micromolar. Controls were; no peptide added, or with 1% ethanol or 1% DMSO added as some peptides were re-dissolved in these compounds (peptides were received lyophilised). Some slices were also treated at this time with connexin 43 specific antisense oligodeoxynucleotides in 30% Pluronic F-127 gel or with gel only, as control experiments.
# Slices were incubated for four hours at 37 degrees C., and then 2.5 mg per ml Lucifer Yellow was added to each well for 30 minutes (in the dark). The tissues were then rinsed twice in PBS, with three further 10 minute washes, and the slices fixed with 4% paraformaldehyde. They were then viewed using a Leica TCS4D laser scanning confocal microscope to assess dye uptake into cells, or not.
# spinal cord segments = test: Prevention of oedema (swelling) in cultured spinal cord segments; type: cell-based, rat; conditions: for % swelling of cord segments: 500 micromolar peptide, 24 hours, control segments 21-23%
# Procedure: FIGS. 1A and 1B show rat spinal cord segments 24 hours after placing into organotypic culture. In the control cord (FIG. 1A) significant swelling is observed at the cut ends (dotted lines mark the original cuts).
# In both cases, the oedema can be blocked using antisense oligodexoynucleotides (ODNs) which prevent translation of the gap junction protein Connexin 43 (FIG. 1B).
# The system described in Example 1 was used to examine the effects of the peptides VDCFLSRPTEKT (SEQ ID NO:35) and SRPTEKTIFII (SEQ ID NO:36) on cultured spinal cord segments to test their ability to block swelling.
# The peptide QQPGCENVCYDK (SEQ ID NO:39) was used a negative control because it allowed dye uptake in the slice cultures described above, and was thus believed to not be able to block oedema in the segments. DMSO was again used as an additional control.
# 5 mm long spinal cord segments were placed in separate wells of a 24 well plate in HBSS. The segments were held to the bottom of the well using a small drop of Superglue. The HBSS was removed and 500 micromolar peptide (final concentration) added to media (no peptide for media alone or DMSO controls). The plates were incubated for 24 hours, the media removed and the tissue fixed with Bouin's fixative for 24 hours. Analysis involved photographing cord segments from above, with Image J used to calculate the total area of the cord segment compared with the area of swelling at the cut ends of the segments. Swelling (oedema) was calculated as (cultured area−original area divided by original area) to give % swelling. Single factor Analysis of Variance was used to determine statistical significance, with cut-off level for significance at p=0.05.
# In this case a dose response was determined with final concentration of peptides used at 5, 10, 50 250 and 500 micromolar.
# [1] = system: glial fibrillary acidic protein (GFAP) expression; test: Immunohistochemical analysis of GFAP (astrocytosis) in spinal cord segments; type: cell-based, rat; conditions: for Area of GFAP label: 24 hours, control 2450
# Procedure: Table 7: Areas of GFAP label in images taken in spinal cord 24 hours after slicing. Control cords have high levels of GFAP indicating an inflammatory response and greater bystander effect than the treated segments.
# connexin 43 hemichannels = test: Perinatal sheep model of cerebral ischaemia, i.c.v. infusion of mimetic peptide; type: in vivo
# Procedure: The infusion in these animals was continued until 72 h after ischaemia. […] Seizures resolved by approximately 48 h.
# Dosages of about 5 μmol/kg brain, 50 μmol/kg and 250 μmol/kg brain weight are also possible. For intravenous (systemic delivery) the effect of log-order increases in plasma concentrations can be used to determine an appropriate dose, starting with loading doses to achieve 0.5 μmol/L (mean fetal blood volume is approximately 350 ml in our perinetal sheep at this age), then 5, 10, 50, 250, 500 and 5000 μM.
# A Romney-Suffolk cross fetal sheep was instrumented between 117 to 124 days of gestation (0.85 term) under general anaesthesia as described elsewhere in detail (Gerrits et al, Pediatr Res 57(3):342-6, (2005); Guan et al., Neuroscience 95(3):831-839, (1999); Guan et al., J Cereb Blood Flow Metab 21(5):493-502, (2001); Gunn et al., J Clin Invest 99(2):248-256, (1997), Gunn et al., Pediatrics 102(5):1098-1106, (1998), Gunn et al., Pediatr Res 46(3):274-280, (1999); Roelfsema et al., J Cereb Blood Flow Metab 24(8):877-886, (2004)). Instrumentation included brachial artery and vein catheters, EKG electrodes, an inflatable occluder around a fetal carotid artery (Gunn et al., 1997; Roelfsema et al., 2004), parietal EEG electrodes 5 and 15 mm anterior, and 10 mm lateral to bregma, a pair of electrodes placed lateral to these to measure cortical impedance (a measure of cytotoxic oedema (Gunn et al., 1997) and a 17-mm-long left i.c.v. cannula 4 mm anterior and 6 mm lateral to bregma. The instrumentation was exteriorised to the maternal flank, uterine and abdominal walls closed, and fetal vascular catheters heparinised (20 IU/ml). The maternal wound was infiltrated with a long acting local anaesthetic bupivacaine (100 mg/20 ml).
# After 5 days recovery, fetal cerebral hypoperfusion was induced by a 30 minute period of bilateral carotid artery occlusion (Gunn et al., 1997; Roelfsema et al., 2004; Tan et al., Ann Neurol 32(5):677-682, (1992); Tan et al., Pediatr Res 39(5):791-797, (1996)). […]
# [2] = near-term fetal sheep, i.c.v. infusion from 90 min after 30 min ischaemia until 72 h
# T1 sequence (P08050 2-382): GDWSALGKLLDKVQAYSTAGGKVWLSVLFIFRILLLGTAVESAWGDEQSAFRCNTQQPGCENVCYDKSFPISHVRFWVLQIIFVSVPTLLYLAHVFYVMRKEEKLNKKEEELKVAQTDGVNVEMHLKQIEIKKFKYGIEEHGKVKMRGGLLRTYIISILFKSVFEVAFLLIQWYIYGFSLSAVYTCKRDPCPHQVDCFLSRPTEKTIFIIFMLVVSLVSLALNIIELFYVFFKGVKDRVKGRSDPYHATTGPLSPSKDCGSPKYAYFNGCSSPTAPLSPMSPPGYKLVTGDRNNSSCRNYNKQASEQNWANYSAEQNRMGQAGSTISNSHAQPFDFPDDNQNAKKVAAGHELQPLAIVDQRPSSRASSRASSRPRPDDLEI
sequence,measurement,setting,value
"FEVAFLLIQWI [connexin 43 mimetic peptide, M3 & E2]",dye (Lucifer Yellow) uptake / block of hemichannels,connexin hemichannels,comparable with control slices
"LGTAVESAWGDEQ [connexin 43 mimetic peptide, M1 & E1]",dye (Lucifer Yellow) uptake / block of hemichannels,connexin hemichannels,comparable with control slices
"LLIQWYIGFSL [connexin 43 mimetic peptide, E2]",dye (Lucifer Yellow) uptake / block of hemichannels,connexin hemichannels,comparable with control slices
"QQPGCENVCYDK [connexin 43 mimetic peptide, E1; used as negative control]",dye (Lucifer Yellow) uptake / block of hemichannels,connexin hemichannels,comparable with control slices; also recorded: did not block hemichannels
same,% swelling of cord segments,spinal cord segments,23%
"QSAFRCNTQQPG [connexin 43 mimetic peptide, E1]",dye (Lucifer Yellow) uptake / block of hemichannels,connexin hemichannels,comparable with control slices
"SLSAVYTCKRDPCPHQ [connexin 43 mimetic peptide, E2]",dye (Lucifer Yellow) uptake / block of hemichannels,connexin hemichannels,comparable with control slices
"SRPTEKTIFII [connexin 43 mimetic peptide, E2 & M4]",dye (Lucifer Yellow) uptake / block of hemichannels,connexin hemichannels,block hemichannels
same,dye (Lucifer Yellow) uptake / block of hemichannels,connexin hemichannels; listed as SEQ ID NO: 36,capable of preventing and/or blocking and/or closing the opening of the hemichannels
same,blocking of oedema at middle range concentration,"spinal cord segments; 50 micromolar, repeat experiments",somewhat less effective
same,% swelling of cord segments,spinal cord segments,17%
same,most effective concentration for blocking of oedema (least oedema),"spinal cord segments; dose response 5, 10, 50 250 and 500 micromolar, vs media alone p=0.001",5 µM
same,Area of GFAP label,[1]; 5 micromolar,300 square units
same,Area of GFAP label,[1]; 50 micromolar,950 square units
same,Area of GFAP label,[1]; 250 micromolar,1000 square units
same,Area of GFAP label,[1]; 500 micromolar,750 square units
same,astrocytosis (GFAP expression),[1]; 24 hours in culture,reduced astrocytosis
same,most effective concentration at preventing the inflammatory response (GFAP),[1]; 24 hours in culture,5 µM
same,effect in perinatal sheep experiment,"connexin 43 hemichannels; 5 μmol/kg brain weight in 1 ml artificial CSF i.c.v. over one hour, then 1 ml per day for 72 hours",significant effect
same,"cortical impedance (cell swelling, cytotoxic oedema)",connexin 43 hemichannels; [2],markedly delayed and attenuated rise in cerebral impedance
same,seizures after cerebral ischaemia,connexin 43 hemichannels; [2],"changed seizures from continuous to a later onset of discrete, separate seizure events"
"VCYDKSFPISHVR [connexin 43 mimetic peptide, E1]",dye (Lucifer Yellow) uptake / block of hemichannels,connexin hemichannels,comparable with control slices
"VDCFLSRPTEKT [connexin 43 mimetic peptide, E2]",dye (Lucifer Yellow) uptake / block of hemichannels,connexin hemichannels,block hemichannels
same,dye (Lucifer Yellow) uptake / block of hemichannels,connexin hemichannels; listed as SEQ ID NO: 35,capable of preventing and/or blocking and/or closing the opening of the hemichannels
same,% swelling of cord segments,spinal cord segments,15%

# Reference: US10201590B2, “Treatment of ocular disorders with anti-connexin proteins and mimetics” (CoDa Therapeutics, Inc., priority 2005, dated 2019)
